Reference: patent US20080175918A1, “CHEMICALLY CROSS-LINKED ELASTOMERIC MICROCAPSULES” (priority 2005, published 2008)

Experiment: Rhodamine release from chemically cross-linked poly(dimethyl siloxane) microcapsules (fluorescence photomicrographs, confocal microscopy)
Type: physicochemical
Source text: FIGS. 18(a)-(c). A series of photomicrographs (200× magnification) depicting a population of rhodamine B-containing chemically cross-linked elastomeric microcapsules one hour and one year after manufacturing. […] In Particular:
Elastomer-Permeable Therapeutic Agent Microencapsulation. Rhodamine dye was encapsulated within chemically cross-linked poly(dimethyl siloxane) microcapsules utilizing the hydrophilic agent encapsulation methods at low concentrations due to the hydrophilicity of the aqueous solution. However, rhodamine is hydrophobic and permeates vulcanized poly(dimethyl siloxane) in the same fashion as a hydrophobic therapeutic agent. The resultant population of microspheres was sieved and re-suspended in a dilute aqueous poly(vinyl alcohol) solution. Upon resuspension in the rhodamine-free aqueous solution, a series of fluorescence photomicrographs were obtained.
To further investigate the shell-permeability and partition coefficient of the rhodamine within chemically cross-linked elastomeric microcapsules samples of the population of microcapsules that was tested for release were imaged by confocal microscopy.

extended release of a model therapeutic (duration) (rhodamine in aqueous cores of cross-linked poly(dimethyl siloxane) microcapsules, in dilute aqueous poly(vinyl alcohol), unstirred at room temperature): greater than one year
burst effect (upon resuspension in rhodamine-free aqueous solution): No burst effect was observed
SMILES: CCN(CC)c1ccc2c(-c3ccccc3C(=O)O)c3ccc(=[N+](CC)CC)cc-3oc2c1 [Rhodamine dye, rhodamine B]
